Reference: patent US20160221992A1, “DENDRITIC COMPOUNDS INCLUDING A CHELATING, FLUOROCHROME OR RECOGNITION AGENT, COMPOSITIONS INCLUDING SAME AND USES THEREOF” (UNIVERSITE DE STRASBOURG, priority 2013, published 2016)

Columns and labels:
[1] = tested on: murine melanoma (B16FO line); assay: Quantitative study of tumoral fixation and biodistribution of the radiolabeled compound (ex-vivo gamma counting after IV injection); assay type: in vivo, C57B16 mice; settings: for Ratio (g)/Al TU/kidneys / Ratio (g)/Al Tu/Liver / Ratio (g)/Al Tu/Lungs / Ratio (g)/Al Tu/blood / Total Elimination (%/Al) / Tumor (g/Al %): Tc99m-radiolabeled, IV
Protocol: C57B16 mice bearing xenografts of murine melanoma (B16FO line) obtained by subcutaneous injection of 300 000 cells suspended in 100 μl of RPMI culture medium are injected subcutaneously in the back. The experiment is performed when the tumors are palpable. i.e. about 10 days […]. All the experiments (tumoral graft, injection and imaging) are carried out under isoflurane/oxygen (2.5%/2.5%) gas anesthesia.
Injection of 50 to 100 microliters of the radiolabeled solution, with a maximum activity of 20 MBQ, by direct intravenous injection (caudal vein). The activity of the empty syringe after injection+compress is also measured for calculating the actual activity injected (actual Ac injected=Ac normalized full syringe—normalized activity (empty syringe and compress). Normalization consists in calculating the theoretical activity at one and the same time chosen as reference (for example the time of injection). The measurements are performed on a regularly calibrated activity meter for medical use (Medisystem©).
(§1) Scintigraphic imaging is carried out using a dedicated small animal micro-5 imager SPECT-CT (BIOSCAN™). A planar scintigraphic image is obtained immediately after injection to verify absence of intracaudal stasis. If there is stasis, the mouse will be sacrificed at late times (24 or 48 h). Static scintigraphic images may be recorded at 2 h, 4 h, 24 h and 48 h (Imager micro-SPECT-CT BIOSCAN©).
This is done ex-vivo by gamma counting of the various samples, using a gamma well counter for medical use, regularly calibrated for the isotopes used (Tc-99m and In-111). The animals are euthanized according to the protocols allowed by the animal ethics committee at 2 h, 4 h, 24 h or 48 h. The main organs are removed (brain, spleen, kidneys, lungs, heart, alimentary canal, liver) as well as a fragment of skin, muscle, bone and a blood sample and the whole tumor. Each sample is weighed and its gamma activity is counted in a sample-changing well counter for dedicated medical use, calibrated for the radioelements used. The animal's carcass is also weighed after removing the tail; these samples are incinerated and their gamma activity is also measured. The gamma activity of the samples containing all the collected urine and the feces is also measured. The activity of each sample is normalized (relative to the time of injection), and the ratio of the activity of each sample is calculated relative to the total activity injected (=the sum of all of the activities measured except that of the tail), expressed in % per gram of tissue, for calculating the ratio of the activity present in the tumor relative to the main organs (liver, kidneys, lungs and blood). The percentage of the activity eliminated is calculated.
The mean values of all of the data for all of the mice whose data are exploitable are calculated, as well as after eliminating the animals with urinary excretion that is too quick (>50% at 2 h or 75% at 4 h, as well as the mice with tumors >2 g, as the existence of necrosis may distort the calculation of the ratio of fixation in the tumor).
The biodistribution data of the various dendrimer compounds coupled to the IFC01102 ligand (also called amine R) and to a chelating agent are compared with those of the ligand alone coupled to the DOTA chelating agent (compound AP045) and radiolabeled with the same radioelement. 8.5 Results with Compound APAG9-1 (Radiolabeled with Tc99m) The radiochemical purity is above 95%, according to the chromatographic profile obtained as described above (example 5). 12 animals were injected. The average activity injected is 3.5±2.4 MBq. 2 animals were euthanized at 2 h, 4 at 24 h and 48 h post-injection. Examples of planar image immediately post-injection and 2 hours post-injection are illustrated in FIG. 3.

[2] = Lymphatic drainage after intradermal injection in the hind paws (sentinel lymph node characterization, scintigraphy/SPECT); assay type: in vivo, mouse; settings: 24 hours after intradermal injection at the two hind paws, Tc99m, 2.8 MBq
Protocol: as §1, with “performed” for “carried out”, “stasis.” for “stasis. If there is stasis, the mouse will be sacrificed at late times (24 or 48 h).”
Intradermal injection of 1 to 20 microliters of a suspension of radiolabeled dendrimers with a hypodermic syringe in the pad of the hindpaw of a nude mouse. A whole-body planar scintigraphic image of the mouse is obtained 5 minutes after injection to verify absence of passage of the compound through the blood. Acquisition of tomographic images (SPECT) every 30 minutes to monitor the lymphatic drainage of the compound and determine the time of disappearance of the signal in the popliteal lymph node. 9.3.a Injection of Compound X1 Labeled with Tc99m (Generation 2 Molecule)

[3] = 48 post-IV, first series (all animals)
[4] = 48 post-IV, second series (mice with too quick urinary secretion or too large tumor eliminated)
[5] = 2 h post-iv, first series (all animals)
[6] = 2 h post-iv, second series (mice with too quick urinary secretion or too large tumor eliminated)
[7] = 4 h post-IV, first series (all animals)
[8] = 4 h post-IV, second series (mice with too quick urinary secretion or too large tumor eliminated)
[9] = 24 h post-IV, first series (all animals)
[10] = 24 h post-IV, second series (mice with too quick urinary secretion or too large tumor eliminated)

In the case of `CCN(CC)CCNC(=O)c1cnc2cc(NC(=O)NCCOCCOCCNC(=O)CCOCCOCCOCCOCCOCCOCCOCCOCCOc3c(OCCOCCOCCOCCOC)cc(C(=O)NCCCNC(=O)C(CCCNC(=O)c4cccc(O)c4O)(CCCNC(=O)c4cccc(O)c4O)CCCNC(=O)c4cccc(O)c4O)cc3OCCOCCOCCOCCOC)ccc2n1` [APAG22-1], the “Ratio (g)/Al TU/kidneys” value [1, 3] is reported as 1.74E−02, the “Ratio (g)/Al Tu/Liver” value [1, 3] is reported as 1.17E−01 and the “Ratio (g)/Al Tu/Lungs” value [1, 3] is reported as 2.22E+00. For the same compound, the “Ratio (g)/Al Tu/blood” value [1, 3] was 3.80E+00, the “Total Elimination (%/Al)” value [1, 3] was 7.36E+01 %/Al and the “Tumor (g/Al %)” value [1, 3] was 6.32E−01 g/Al %. The “Ratio (g)/Al TU/kidneys” value [1, 4] was 1.74E−02, the “Ratio (g)/Al Tu/Liver” value [1, 4] was 1.17E−01 and the “Ratio (g)/Al Tu/Lungs” value [1, 4] was 2.22E+00. The “Ratio (g)/Al Tu/blood” value [1, 4] was 3.80E+00, the “Total Elimination (%/Al)” value [1, 4] was 7.32E+01 %/Al and the “Tumor (g/Al %)” value [1, 4] was 6.68E−01 g/Al %. The “Ratio (g)/Al TU/kidneys” value [1, 5] was 3.36E−01, the “Ratio (g)/Al Tu/Liver” value [1, 5] was 3.06E−01 and the “Ratio (g)/Al Tu/Lungs” value [1, 5] was 5.44E−01. For the same compound, the “Ratio (g)/Al Tu/blood” value [1, 5] was 3.69E−01, the “Total Elimination (%/Al)” value [1, 5] was 2.59E+01 %/Al and the “Tumor (g/Al %)” value [1, 5] was 2.98E+00 g/Al %. For the same compound, the “Ratio (g)/Al TU/kidneys” value [1, 6] was 4.75E−01, the “Ratio (g)/Al Tu/Liver” value [1, 6] was 3.15E−01 and the “Ratio (g)/Al Tu/Lungs” value [1, 6] was 4.17E−01. The “Ratio (g)/Al Tu/blood” value [1, 6] was 1.10E+00, the “Total Elimination (%/Al)” value [1, 6] was 1.46E+01 %/Al and the “Tumor (g/Al %)” value [1, 6] was 3.50E+00 g/Al %. The “Ratio (g)/Al TU/kidneys” value [1, 7] was 1.09E−01, the “Ratio (g)/Al Tu/Liver” value [1, 7] was 1.90E−01 and the “Ratio (g)/Al Tu/Lungs” value [1, 7] was 9.45E−01. The “Ratio (g)/Al Tu/blood” value [1, 7] was 4.62E−01, the “Total Elimination (%/Al)” value [1, 7] was 3.58E+01 %/Al and the “Tumor (g/Al %)” value [1, 7] was 2.14E+00 g/Al %. For the same compound, the “Ratio (g)/Al TU/kidneys” value [1, 8] was 1.09E−01, the “Ratio (g)/Al Tu/Liver” value [1, 8] was 1.90E−01 and the “Ratio (g)/Al Tu/Lungs” value [1, 8] was 9.45E−01. For the same compound, the “Ratio (g)/Al Tu/blood” value [1, 8] was 4.62E−01, the “Total Elimination (%/Al)” value [1, 8] was 3.58E+01 %/Al and the “Tumor (g/Al %)” value [1, 8] was 2.14E+00 g/Al %. The “Ratio (g)/Al TU/kidneys” value [1, 9] was 2.11E−02, the “Ratio (g)/Al Tu/Liver” value [1, 9] was 1.20E−01 and the “Ratio (g)/Al Tu/Lungs” value [1, 9] was 2.26E+00. For the same compound, the “Ratio (g)/Al Tu/blood” value [1, 9] was 9.00E+00, the “Total Elimination (%/Al)” value [1, 9] was 6.45E+01 %/Al and the “Tumor (g/Al %)” value [1, 9] was 1.19E+00 g/Al %. The “Ratio (g)/Al TU/kidneys” value [1, 10] was 2.11E−02, the “Ratio (g)/Al Tu/Liver” value [1, 10] was 1.20E−01 and the “Ratio (g)/Al Tu/Lungs” value [1, 10] was 2.26E+00. For the same compound, the “Ratio (g)/Al Tu/blood” value [1, 10] was 9.00E+00, the “Total Elimination (%/Al)” value [1, 10] was 5.45E+01 %/Al and the “Tumor (g/Al %)” value [1, 10] was 1.19E+00 g/Al %. For the same compound, the “tumoral uptake compared with the ligand alone (AP045)” value ([1]; APAG22-1: at two hours post-IV) was “higher”, the “time at which the maximum tumoral uptake is observed” value ([1]; after IV injection of the radiolabeled compound) was 2 h and the “elimination compared with the ligand alone (AP045)” value ([1]; at 24 hours and 48 hours) was “far greater”. The “Tumor to Liver ratio compared with the ligand alone (AP045)” value ([1]; mouse, in vivo) was “much higher”.
For `COCCOCCOCCOCCOc1cc(COc2cc(OCc3cc(OCCOCCOCCOCCOC)c(OCCOCCOCCOCCOC)c(OCCOCCOCCOCCOC)c3)cc(C(=O)NCCCNC(=O)C(CCCNC(=O)c3cccc(O)c3O)(CCCNC(=O)c3cccc(O)c3O)CCCNC(=O)c3cccc(O)c3O)c2)cc(OCCOCCOCCOCCOC)c1OCCOCCOCCOCCOC` [X1], the hepatic activity [2] was “very low” and the “level of urinary elimination” value [2] was “very high”.
